Source: US12404289B2 (Gilead Sciences, Inc., priority 2020, dated 2025)
pEC50: −log10 of the molar value.

Each molecule was assayed on Respiratory syncytial virus (RSV) strain A2 (assay: Hep-2 RSV2 384-well assay (EC50-HEP2-384)). Conditions: HEp-2 cells, RSV A2, MOI=4, 4 days, Table 3.
Format: cell-based

Compound	pEC50
C[C@H](NP(=O)(OC[C@H]1O[C@@](C#N)(c2ccc3c(N)ncnn23)[C@H](O)[C@@H]1O)Oc1ccc(C(C)(C)C)cc1)C(=O)OC1CC2(CCCC2)C1 (stereo partly drawn) [Example 97b, Spiro[3.4]octan-2-yl ((((2R,3S,4R,5R)-5-(4-aminopyrrolo[2,1-f][1,2,4]triazin-7-yl)-5-cyano-3,4-dihydroxytetrahydrofuran-2-yl)methoxy)(4-(tert-butyl)phenoxy)phosphoryl)-L-alaninate]	6.98
CCC(CC)COC(=O)[C@H](C)N[P@](=O)(OC[C@H]1O[C@@](C#N)(c2ccc3c(N)ncnn23)[C@H](OC(C)=O)[C@@H]1OC(C)=O)Oc1cccc2c1CCCC2 [Example 143, (2R,3R,4R,5R)-2-(4-aminopyrrolo[2,1-f][1,2,4]triazin-7-yl)-2-cyano-5-((((S)—(((S)-1-(2-ethylbutoxy)-1-oxopropan-2-yl)amino)((5,6,7,8-tetrahydronaphthalen-1-yl)oxy)phosphoryl)oxy)methyl)tetrahydrofuran-3,4-diyl Diacetate]	6.13
CCC(CC)COC(=O)[C@H](C)NP(=O)(OC[C@H]1O[C@@](C#N)(c2ccc3c(N)ncnn23)[C@H](O)[C@@H]1O)Oc1cccc2c1CCCC2 (single isomer, unassigned) [Example 135]	5.90
CCCOC(=O)[C@H](C)NP(=O)(OC[C@H]1O[C@@](C#N)(c2ccc3c(N)ncnn23)[C@H](OC(=O)C(C)C)[C@@H]1OC(=O)C(C)C)Oc1ccc(C(C)(C)C)cc1 (single isomer, unassigned) [Example 48b]	7.26
CCC(CC)COC(=O)[C@H](C)N[P@@](=O)(OC[C@H]1O[C@@](C#N)(c2ccc3c(N)ncnn23)[C@H](OC(=O)C(C)C)[C@@H]1OC(=O)C(C)C)Oc1cccc2c1CCCC2 [Example 146, (2R,3R,4R,5R)-2-(4-aminopyrrolo[2,1-f][1,2,4]triazin-7-yl)-2-cyano-5-((((R)—(((S)-1-(2-ethylbutoxy)-1-oxopropan-2-yl)amino)((5,6,7,8-tetrahydronaphthalen-1-yl)oxy)phosphoryl)oxy)methyl)tetrahydrofuran-3,4-diyl bis(2-methylpropanoate)]	6.34

Same assay, conditions: human respiratory syncytial virus, HEp-2, 96 h, HEp-2 cells, RSV A2, MOI=4, 4 days, Table 3

Compound	pEC50
COCCOC(=O)[C@H](C)NP(=O)(OC[C@H]1O[C@@](C#N)(c2ccc3c(N)ncnn23)[C@H](OC(C)=O)[C@@H]1OC(C)=O)Oc1ccc(C(C)(C)C)cc1 (stereo partly drawn) [Example 150, (2R,3R,4R,5R)-2-(4-aminopyrrolo[2,1-f][1,2,4]triazin-7-yl)-5-((((4-(tert-butyl)phenoxy)(((S)-1-(2-methoxyethoxy)-1-oxopropan-2-yl)amino)phosphoryl)oxy)methyl)-2-cyanotetrahydrofuran-3,4-diyl Diacetate]	7.11
CCC(CC)COC(=O)[C@H](C)NP(=O)(OC[C@H]1O[C@@](C#N)(c2ccc3c(N)ncnn23)[C@H](OC(=O)C(C)C)[C@@H]1OC(=O)C(C)C)Oc1ccc(C#N)cc1 (stereo partly drawn) [Example 40, (2R,3R,4R,5R)-2-(4-aminopyrrolo[2,1-f][1,2,4]triazin-7-yl)-2-cyano-5-((((4-cyanophenoxy)(((S)-1-(2-ethylbutoxy)-1-oxopropan-2-yl)amino)phosphoryl)oxy)methyl)tetrahydrofuran-3,4-diyl bis(2-methylpropanoate)]	6.65
CCC(=O)O[C@H]1[C@@H](OC(=O)CC)[C@](C#N)(c2ccc3c(N)ncnn23)O[C@@H]1COP(=O)(N[C@@H](C)C(=O)OCC1CCC1)Oc1ccccc1 (stereo partly drawn) [Example 134, (2R,3R,4R,5R)-2-(4-aminopyrrolo[2,1-f][1,2,4]triazin-7-yl)-2-cyano-5-((((((S)-1-(cyclobutylmethoxy)-1-oxopropan-2-yl)amino)(phenoxy)phosphoryl)oxy)methyl)tetrahydrofuran-3,4-diyl Dipropionate]	7.03
CCC(=O)O[C@H]1[C@@H](OC(=O)CC)[C@](C#N)(c2ccc3c(N)ncnn23)O[C@@H]1COP(=O)(N[C@@H](C)C(=O)OCC(C)(C)OC)Oc1ccc(C(C)(C)C)cc1 (stereo partly drawn) [Example 130, (2R,3R,4R,5R)-2-(4-aminopyrrolo[2,1-f][1,2,4]triazin-7-yl)-5-((((4-(tert-butyl)phenoxy)(((S)-1-(2-methoxy-2-methylpropoxy)-1-oxopropan-2-yl)amino)phosphoryl)oxy)methyl)-2-cyanotetrahydrofuran-3,4-diyl Dipropionate]	7.28
CC(C)C(=O)O[C@H]1[C@@H](OC(=O)C(C)C)[C@](C#N)(c2ccc3c(N)ncnn23)O[C@@H]1COP(=O)(N[C@@H](C)C(=O)OC1CC2(CCCC2)C1)Oc1ccc(C(C)(C)C)cc1 (stereo partly drawn) [Example 100a, (2R,3R,4R,5R)-2-(4-aminopyrrolo[2,1-f][1,2,4]triazin-7-yl)-5-((((4-(tert-butyl)phenoxy)(((S)-1-oxo-1-(spiro[3.4]octan-2-yloxy)propan-2-yl)amino)phosphoryl)oxy)methyl)-2-cyanotetrahydrofuran-3,4-diyl bis(2-methylpropanoate)]	6.96
CCC(=O)O[C@H]1[C@@H](OC(=O)CC)[C@](C#N)(c2ccc3c(N)ncnn23)O[C@@H]1COP(=O)(N[C@@H](C)C(=O)OC1CC2(CCCC2)C1)Oc1ccc(C(C)(C)C)cc1 (stereo partly drawn) [Example 99a, (2R,3R,4R,5R)-2-(4-aminopyrrolo[2,1-f][1,2,4]triazin-7-yl)-5-((((4-(tert-butyl)phenoxy)(((S)-1-oxo-1-(spiro[3.4]octan-2-yloxy)propan-2-yl)amino)phosphoryl)oxy)methyl)-2-cyanotetrahydrofuran-3,4-diyl Dipropionate]	7.09
CCC(CC)COC(=O)[C@H](C)NP(=O)(OC[C@H]1O[C@@](C#N)(c2ccc3c(N)ncnn23)[C@H](OC(=O)C(C)C)[C@@H]1OC(=O)C(C)C)Oc1ccc2c(c1)CCCC2 (stereo partly drawn) [Example 132, (2R,3R,4R,5R)-2-(4-aminopyrrolo[2,1-f][1,2,4]triazin-7-yl)-2-cyano-5-((((((S)-1-(2-ethylbutoxy)-1-oxopropan-2-yl)amino)((5,6,7,8-tetrahydronaphthalen-2-yl)oxy)phosphoryl)oxy)methyl) tetrahydrofuran-3,4-diyl bis(2-methylpropanoate)]	6.90
COC(C)COC(=O)[C@H](C)NP(=O)(OC[C@H]1O[C@@](C#N)(c2ccc3c(N)ncnn23)[C@H](OC(C)=O)[C@@H]1OC(C)=O)Oc1ccc(C(C)(C)C)cc1 (stereo partly drawn) [Example 161, (2R,3R,4R,5R)-2-(4-aminopyrrolo[2,1-f][1,2,4]triazin-7-yl)-5-((((4-(tert-butyl)phenoxy)(((2S)-1-(2-methoxypropoxy)-1-oxopropan-2-yl)amino)phosphoryl)oxy)methyl)-2-cyanotetrahydrofuran-3,4-diyl Diacetate]	6.95
CCCOC(=O)[C@H](C)NP(=O)(OC[C@H]1O[C@@](C#N)(c2ccc3c(N)ncnn23)[C@H](O)[C@@H]1O)Oc1ccc(C(C)(C)C)cc1 (single isomer, unassigned) [Example 47a]	7.38
CC(C)C(=O)O[C@H]1[C@@H](OC(=O)C(C)C)[C@](C#N)(c2ccc3c(N)ncnn23)O[C@@H]1CO[P@@](=O)(N[C@@H](C)C(=O)O[C@H]1CCOC1)Oc1ccc(C(C)(C)C)cc1 [Example 38, (2R,3R,4R,5R)-2-(4-aminopyrrolo[2,1-f][1,2,4]triazin-7-yl)-5-((((4-(tert-butyl)phenoxy)(((S)-1-oxo-1-(((S)-tetrahydrofuran-3-yl)oxy)propan-2-yl)amino)phosphoryl)oxy)methyl)-2-cyanotetrahydrofuran-3,4-diyl bis(2-methylpropanoate)]	6.86
CCC(CC)COC(=O)[C@H](C)NP(=O)(OC[C@H]1O[C@@](C#N)(c2ccc3c(N)ncnn23)[C@H](O)[C@@H]1O)Oc1ccc(C#N)cc1 (stereo partly drawn) [Example 39, 2-ethylbutyl ((((2R,3S,4R,5R)-5-(4-aminopyrrolo[2,1-f][1,2,4]triazin-7-yl)-5-cyano-3,4-dihydroxytetrahydrofuran-2-yl)methoxy)(4-cyanophenoxy)phosphoryl)-L-alaninate]	5.80
COC(C)(C)COC(=O)[C@H](C)NP(=O)(OC[C@H]1O[C@@](C#N)(c2ccc3c(N)ncnn23)[C@H](O)[C@@H]1O)Oc1cccc2ccccc12 (stereo partly drawn) [Example 128, 2-methoxy-2-methylpropyl ((((2R,3S,4R,5R)-5-(4-aminopyrrolo[2,1-f][1,2,4]triazin-7-yl)-5-cyano-3,4-dihydroxytetrahydrofuran-2-yl)methoxy)(naphthalen-1-yloxy)phosphoryl)-L-alaninate]	6.28
C[C@H](NP(=O)(OC[C@H]1O[C@@](C#N)(c2ccc3c(N)ncnn23)[C@H](O)[C@@H]1O)Oc1ccc(C(C)(C)C)cc1)C(=O)OCc1ccccc1 (stereo partly drawn) [Example 57, Benzyl ((((2R,3S,4R,5R)-5-(4-aminopyrrolo[2,1-f][1,2,4]triazin-7-yl)-5-cyano-3,4-dihydroxytetrahydrofuran-2-yl)methoxy)(4-(tert-butyl)phenoxy)phosphoryl)-L-alaninate]	6.73
CCC(CC)COC(=O)[C@H](C)NP(=O)(OC[C@H]1O[C@@](C#N)(c2ccc3c(N)ncnn23)[C@H](O)[C@@H]1O)Oc1ccc(N2CCOCC2)cc1 (stereo partly drawn) [Example 92, 2-ethylbutyl ((((2R,3S,4R,5R)-5-(4-aminopyrrolo[2,1-f][1,2,4]triazin-7-yl)-5-cyano-3,4-dihydroxytetrahydrofuran-2-yl)methoxy)(4-morpholinophenoxy)phosphoryl)-L-alaninate]	5.60
CCCOC(=O)[C@H](C)NP(=O)(OC[C@H]1O[C@@](C#N)(c2ccc3c(N)ncnn23)[C@H](OC(=O)C(C)C)[C@@H]1OC(=O)C(C)C)Oc1ccc(C(C)(C)C)cc1 (single isomer, unassigned) [Example 48a]	7.47
CC(C)C(=O)O[C@H]1[C@@H](OC(=O)C(C)C)[C@](C#N)(c2ccc3c(N)ncnn23)O[C@@H]1COP(=O)(N[C@@H](C)C(=O)OCC1CCCCC1)Oc1ccc(C(C)(C)C)cc1 (stereo partly drawn) [Example 164, (2R,3R,4R,5R)-2-(4-aminopyrrolo[2,1-f][1,2,4]triazin-7-yl)-5-((((4-(tert-butyl)phenoxy)(((S)-1-(cyclohexylmethoxy)-1-oxopropan-2-yl)amino)phosphoryl)oxy)methyl)-2-cyanotetrahydrofuran-3,4-diyl bis(2-methylpropanoate)]	6.97
